Values quoted from earlier work in patent US20230405125A1, “TREATMENT OF RECURRENT GIOBLASTOMA WITH PERILLYL ALCOHOL” (NeOnc Technologies, Inc., priority 2020, published 2023).
“Also recorded” adds a separate entry of the source. Where two headings read alike, the source gives them in different places.

Assays:
[1] = test system: recurrent GBM patients
[2] = test system: patients with different solid tumors; conditions: oral POH
[3] = test system: patients with recurrent malignant gliomas
[4] = target: farnesyl-protein transferase (FPT) (Homo sapiens, UniProt P49354+P49356)
[5] = Reardon et al. (CheckMate 143) 2020

Bevacizumab: humanized monoclonal antibody against VEGF (vascular endothelial growth factor)
OS-6 ([1]; Field et al. (CABARET) 2015): 61% | OS-9 ([1]; Field et al. (CABARET) 2015): 39% | OS-12 ([1]; Field et al. (CABARET) 2015): 24% | median OS ([1]; Field et al. (CABARET) 2015): 7.5 months | OS-6 ([1]; Heiland et al. 2016): 18% | OS-12 ([1]; Heiland et al. 2016): 10% | median OS ([1]; Heiland et al. 2016): 4.1 months | OS-6 ([1]; Taal et al. (BELOB) 2014): 64% | OS-9 ([1]; Taal et al. (BELOB) 2014): 38% | OS-12 ([1]; Taal et al. (BELOB) 2014): 26% | median OS ([1]; Taal et al. (BELOB) 2014): 8.0 months

Nivolumab: fully human monoclonal antibody targeting the programmed death-1 (PD-1) immune checkpoint receptor
OS-6 [1, 5]: 72% | OS-9 [1, 5]: 52% | OS-12 [1, 5]: 42% | median OS [1, 5]: 9.8 months

O=NN(CCCl)C(=O)NC1CCCCC1 [Lomustine]
OS-6 ([1]; Batchelor et al. 2013): 70% | OS-9 ([1]; Batchelor et al. 2013): 52% | OS-12 ([1]; Batchelor et al. 2013): 41% | median OS ([1]; Batchelor et al. 2013): 9.8 months

C=C(C)[C@@H]1CC=C(CO)CC1 [POH]
anti-cancer efficacy [2]: limited | tolerability [2]: Gastrointestinal toxicity proved dose-limiting | tolerability ([2]; listed as perillyl alcohol): poorly tolerated | six month progression free survival rate ([3]; intranasal commercial grade POH with solvent cocktail, 150 patients): 50% | radiographic response ([3]; intranasal commercial-grade POH): Radiographic regression | tolerability / adverse effects ([3]; intranasal commercial-grade POH, four times daily): minimal side effect; also recorded: good tolerance; also recorded: no severe adverse effects | effect on FPT enzymatic activity [4]: inhibit

CCOP(=O)(OCC)C(C)NC(=O)N(CCCl)N=O (stereo not drawn) [Fotemustine]
OS-6 ([1]; human, in vivo): 73% | OS-9 ([1]; human, in vivo): 47% | OS-12 ([1]; human, in vivo): 40% | median OS ([1]; human, in vivo): 8.7 months
